According to patent publication US20240043427A1 (Gilead Sciences, Inc., priority 2020, published 2024):

What was measured:
[1] = molecular target: T1, CD73 (Homo sapiens (Human), UniProt P21589); test: MDA-MB-231 Cell Based CD73 Activity Assay (DMEM); settings: MDA-MB-231-GFP cells, DMEM medium with 10% human plasma, 200 uM AMP
[2] = molecular target: T1, CD73; format: biochemical; settings: 1 mM NaH2PO4 in enzyme buffer, CD73 0.3 nM, AMP 15 uM

T1 sequence (P21589 27-574): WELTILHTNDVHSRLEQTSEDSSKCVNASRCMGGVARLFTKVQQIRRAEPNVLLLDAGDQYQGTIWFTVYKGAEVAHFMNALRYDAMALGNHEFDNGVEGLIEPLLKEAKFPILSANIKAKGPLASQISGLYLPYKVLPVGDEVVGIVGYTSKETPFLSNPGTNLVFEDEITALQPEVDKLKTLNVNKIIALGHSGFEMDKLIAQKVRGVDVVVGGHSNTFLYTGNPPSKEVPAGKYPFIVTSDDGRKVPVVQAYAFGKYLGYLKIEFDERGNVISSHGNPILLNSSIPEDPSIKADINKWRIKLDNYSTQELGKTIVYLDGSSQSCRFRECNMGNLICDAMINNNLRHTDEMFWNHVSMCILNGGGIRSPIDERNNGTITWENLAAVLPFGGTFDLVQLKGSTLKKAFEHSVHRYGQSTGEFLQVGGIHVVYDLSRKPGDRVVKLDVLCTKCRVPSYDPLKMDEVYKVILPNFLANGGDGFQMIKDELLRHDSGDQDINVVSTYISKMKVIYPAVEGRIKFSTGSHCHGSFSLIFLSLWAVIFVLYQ

| SMILES | EC50 [1] | IC50 [2] |
| --- | --- | --- |
| O=c1[nH]cc(-c2cc([C@H]3C[C@@H]3c3ccc4c(C(F)(F)F)nc(CC(F)(F)F)n4c3)c3nccn3n2)c(=O)[nH]1 (racemic) [Example 609, 5-(8-((1S,2S)-2-(3-(2,2,2-trifluoroethyl)-1-(trifluoromethyl)imidazo[1,5-a]pyridin-6-yl)cyclopropyl)imidazo[1,2-b]pyridazin-6-yl)pyrimidine-2,4(1H,3H)-dione] | 0.39 nM | 2.36 nM |
| O=c1[nH]cc(-c2cc([C@H]3C[C@@H]3c3ncc4cnn(CC(F)(F)F)c4c3F)c3nccn3n2)c(=O)[nH]1 (racemic) [Example 615, 5-(8-((1S,2S)-2-(7-fluoro-1-(2,2,2-trifluoroethyl)-1H-pyrazolo[4,3-c]pyridin-6-yl)cyclopropyl)imidazo[1,2-b]pyridazin-6-yl)pyrimidine-2,4(1H,3H)-dione] | 0.28 nM | 1.54 nM |
| O=c1[nH]cc(-c2cc([C@H]3C[C@@H]3c3ccc4nc5n(c4c3)C(C(F)(F)F)CC5)c3nccn3n2)c(=O)[nH]1 (mixture of isomers) [Example 616, 5-(8-((1S,2S)-2-(1-(trifluoromethyl)-2,3-dihydro-1H-benzo[d]pyrrolo[1,2-a]imidazol-7-yl)cyclopropyl)imidazo[1,2-b]pyridazin-6-yl)pyrimidine-2,4(1H,3H)-dione] | 0.2 nM | 2.3 nM |
| O=c1[nH]cc(-c2cc([C@H]3C[C@@H]3c3cnc4cnn(CC(F)(F)F)c4c3)c3ncc(F)n3n2)c(=O)[nH]1 (racemic) [Example 619, 5-(3-fluoro-8-((1S,2S)-2-(1-(2,2,2-trifluoroethyl)-1H-pyrazolo[4,3-b]pyridin-6-yl)cyclopropyl)imidazo[1,2-b]pyridazin-6-yl)pyrimidine-2,4(1H,3H)-dione] | 0.14 nM | 0.95 nM |
| O=c1[nH]cc(-c2cc([C@H]3C[C@@H]3c3ncc4cnn(CC(F)(F)F)c4c3F)c3ncc(F)n3n2)c(=O)[nH]1 (racemic) [Example 621, 5-(3-fluoro-8-((1S,2S)-2-(7-fluoro-1-(2,2,2-trifluoroethyl)-1H-pyrazolo[4,3-c]pyridin-6-yl)cyclopropyl)imidazo[1,2-b]pyridazin-6-yl)pyrimidine-2,4(1H,3H)-dione] | 0.32 nM | 1.32 nM |
| O=c1[nH]cc(-c2cc([C@H]3C[C@@H]3c3cc(-c4ccccc4C(F)(F)F)ccn3)c3nccn3n2)c(=O)[nH]1 (racemic) [Example 622, 5-(8-((1S,2S)-2-(4-(2-(trifluoromethyl)phenyl)pyridin-2-yl)cyclopropyl)imidazo[1,2-b]pyridazin-6-yl)pyrimidine-2,4(1H,3H)-dione] | 27.3 nM | 2.87 nM |
| O=c1[nH]cc(-c2cc([C@H]3C[C@@H]3c3cc(-c4ccc(F)cc4F)ccn3)c3nccn3n2)c(=O)[nH]1 (racemic) [Example 623, 5-(8-((1S,2S)-2-(4-(2,4-difluorophenyl)pyridin-2-yl)cyclopropyl)imidazo[1,2-b]pyridazin-6-yl)pyrimidine-2,4(1H,3H)-dione] | 22 nM | 2.27 nM |
| O=c1[nH]cc(-c2cc([C@H]3C[C@@H]3c3cc4c(cn3)nc(C(F)(F)F)n4CC(F)(F)F)c3nccn3n2)c(=O)[nH]1 (racemic) [Example 624, 5-(8-((1S,2S)-2-(1-(2,2,2-trifluoroethyl)-2-(trifluoromethyl)-1H-imidazo[4,5-c]pyridin-6-yl)cyclopropyl)imidazo[1,2-b]pyridazin-6-yl)pyrimidine-2,4(1H,3H)-dione] | 0.32 nM | 5.81 nM |
| O=c1[nH]cc(-c2cc([C@H]3C[C@@H]3c3ccn4c(C(F)(F)F)ncc4c3)c3nccn3n2)c(=O)[nH]1 (racemic) [Example 625, 5-(8-((1S,2S)-2-(3-(trifluoromethyl)imidazo[1,5-a]pyridin-7-yl)cyclopropyl)imidazo[1,2-b]pyridazin-6-yl)pyrimidine-2,4(1H,3H)-dione] | 10.1 nM | 2.47 nM |
| CC1(C)CN(c2cc(-c3c[nH]c(=O)[nH]c3=O)nn3ccnc23)CC1(F)F [Example 80, 5-[8-(3,3-difluoro-4,4-dimethyl-pyrrolidin-1-yl)imidazo[1,2-b]pyridazin-6-yl]-1H-pyrimidine-2,4-dione] | 6.79 nM | 1.81 nM |
| CC1(C)CN(c2cc(-c3c[nH]c(=O)[nH]c3=O)nn3c(F)cnc23)CC1(F)F [Example 81, 5-[8-(3,3-difluoro-4,4-dimethyl-pyrrolidin-1-yl)-3-fluoro-imidazo[1,2-b]pyridazin-6-yl]-1H-pyrimidine-2,4-dione] | 8.22 nM | 1.93 nM |
| O=c1[nH]cc(-c2cc(N3CC(F)(F)C4(CC4)C3)c3ncc(F)n3n2)c(=O)[nH]1 [Example 82, 5-(8-(7,7-difluoro-5-azaspiro[2.4]heptan-5-yl)-3-fluoroimidazo[1,2-b]pyridazin-6-yl)pyrimidine-2,4(1H,3H)-dione] | 16.4 nM | 3.49 nM |
| O=c1[nH]cc(-c2cc(N3CC(F)(F)C4(CC4)C3)c3nccn3n2)c(=O)[nH]1 [Example 83, 5-(8-(7,7-difluoro-5-azaspiro[2.4]heptan-5-yl)imidazo[1,2-b]pyridazin-6-yl)pyrimidine-2,4(1H,3H)-dione] | 6.65 nM | 1.47 nM |
| O=c1[nH]cc(-c2cc(N3CC(F)(F)C4(CC4)C3)c3ncnn3n2)c(=O)[nH]1 [Example 84, 5-(8-(7,7-difluoro-5-azaspiro[2.4]heptan-5-yl)-[1,2,4]triazolo[1,5-b]pyridazin-6-yl)pyrimidine-2,4(1H,3H)-dione] | 6.56 nM | 1.1 nM |
| CC(C)n1ncc2ccc([C@H]3C[C@@H]3c3cc(-c4c[nH]c(=O)[nH]c4=O)nn4ccnc34)cc21 [Example 120, 5-(8-((1S,2S)-2-(1-isopropyl-1H-indazol-6-yl)cyclopropyl)imidazo[1,2-b]pyridazin-6-yl)pyrimidine-2,4(1H,3H)-dione] | 0.85 nM | 0.85 nM |
| O=c1[nH]cc(-c2cc([C@H]3C[C@@H]3c3ccc(OC(F)F)nc3)c3ncc(F)n3n2)c(=O)[nH]1 [Example 122, 5-(8-((1S,2S)-2-(6-(difluoromethoxy)pyridin-3-yl)cyclopropyl)-3-fluoroimidazo[1,2-b]pyridazin-6-yl)pyrimidine-2,4(1H,3H)-dione] | 11.1 nM | 2.39 nM |

Further lines, results first:

| EC50 [1] | IC50 [2] | SMILES |
| --- | --- | --- |
| 0.26 nM | 5.16 nM | O=c1[nH]cc(-c2cc([C@H]3C[C@@H]3c3ccc4nc(C(F)F)n(CC(F)(F)F)c4c3)c3nccn3n2)c(=O)[nH]1 (racemic) [Example 626, 5-(8-((1S,2S)-2-(2-(difluoromethyl)-1-(2,2,2-trifluoroethyl)-1H-benzo[d]imidazol-6-yl)cyclopropyl)imidazo[1,2-b]pyridazin-6-yl)pyrimidine-2,4(1H,3H)-dione] |
| > 50 nM | 2.57 nM | O=c1[nH]cc(-c2cc([C@H]3C[C@@H]3c3cc(OCC(F)(F)F)c4cccnc4c3)c3nccn3n2)c(=O)[nH]1 (racemic) [Example 627, 5-(8-((1S,2S)-2-(5-(2,2,2-trifluoroethoxy)quinolin-7-yl)cyclopropyl)imidazo[1,2-b]pyridazin-6-yl)pyrimidine-2,4(1H,3H)-dione] |
| 0.11 nM | 2.72 nM | CC(F)(F)CN1C(=O)C2(CC2)c2ccc([C@H]3C[C@@H]3c3cc(-c4c[nH]c(=O)[nH]c4=O)nn4ccnc34)cc21 (racemic) [Example 733, 5-(8-((1S,2S)-2-(1′-(2,2-difluoropropyl)-2′-oxospiro[cyclopropane-1,3′-indolin]-6′-yl)cyclopropyl)imidazo[1,2-b]pyridazin-6-yl)pyrimidine-2,4(1H,3H)-dione] |
| 0.19 nM | 1.69 nM | O=C1N(CC2(F)CC2)c2cc([C@H]3C[C@@H]3c3cc(-c4c[nH]c(=O)[nH]c4=O)nn4ccnc34)ccc2C12CC2 (racemic) [Example 734, 5-(8-((1S,2S)-2-(1′-((1-fluorocyclopropyl)methyl)-2′-oxospiro[cyclopropane-1,3′-indolin]-6′-yl)cyclopropyl)imidazo[1,2-b]pyridazin-6-yl)pyrimidine-2,4(1H,3H)-dione] |
| 0.21 nM | 1.91 nM | O=C1N(CC(F)(F)C(F)F)c2cc([C@H]3C[C@@H]3c3cc(-c4c[nH]c(=O)[nH]c4=O)nn4ccnc34)ccc2C12CC2 (racemic) [Example 736, 5-(8-((1S,2S)-2-(2′-oxo-1′-(2,2,3,3-tetrafluoropropyl)spiro[cyclopropane-1,3′-indolin]-6′-yl)cyclopropyl)imidazo[1,2-b]pyridazin-6-yl)pyrimidine-2,4(1H,3H)-dione] |
| 0.18 nM | 1.79 nM | O=C1N(CC(F)(F)C(F)(F)F)c2cc([C@H]3C[C@@H]3c3cc(-c4c[nH]c(=O)[nH]c4=O)nn4ccnc34)ccc2C12CC2 (racemic) [Example 737, 5-(8-((1S,2S)-2-(2′-oxo-1′-(2,2,3,3,3-pentafluoropropyl)spiro[cyclopropane-1,3′-indolin]-6′-yl)cyclopropyl)imidazo[1,2-b]pyridazin-6-yl)pyrimidine-2,4(1H,3H)-dione] |
| 0.21 nM | 1.74 nM | O=C1N(CC(F)(F)C2CC2)c2cc([C@H]3C[C@@H]3c3cc(-c4c[nH]c(=O)[nH]c4=O)nn4ccnc34)ccc2C12CC2 (racemic) [Example 738, 5-(8-((1S,2S)-2-(1′-(2-cyclopropyl-2,2-difluoroethyl)-2′-oxospiro[cyclopropane-1,3′-indolin]-6′-yl)cyclopropyl)imidazo[1,2-b]pyridazin-6-yl)pyrimidine-2,4(1H,3H)-dione] |
| 0.84 nM | 2.37 nM | O=C1N(CCC(F)(F)F)c2cc([C@H]3C[C@@H]3c3cc(-c4c[nH]c(=O)[nH]c4=O)nn4ccnc34)ccc2C12CC2 (racemic) [Example 746, 5-(8-((1S,2S)-2-(2′-oxo-1′-(3,3,3-trifluoropropyl)spiro[cyclopropane-1,3′-indolin]-6′-yl)cyclopropyl)imidazo[1,2-b]pyridazin-6-yl)pyrimidine-2,4(1H,3H)-dione] |
